Entries after “also recorded” stand apart in the source; their conditions may differ.
Columns and labels:
ZDF rats [1] = assay: Glycaemia, insulinaemia and pancreas mass in ZDF diabetic rats; format: in vivo, rat
Procedure: Rats were genetically obese normoglycemic (Zucker or Fa/Fa), 10-11 week-old diabetic rats (ZDF), genetic non-overweight diabetic (type 2 diabetes) rats (Goto-Kakizaki (GK) model), non-overweight diabetic (type 2 diabetes) rats n0STZ model or normal Wistar rats submitted to an 8-week high-fat high sucrose diet (a model of nutritional induction of insulin resistance).
The day of the study, after a fasted period overnight (18 h), blood samplings will be taken in awaked rats from the tail vein.
Insulin levels were determined with commercial kits (Linco Research).
Glucose and 3-hydroxybutyrate (3-HB) were measured enzymatically and non esterified fatty acid (NEFA) by colorimetric assay (Wako Chemicals).
ZDF diabetic rats are a good model for studying the anti-diabetic treatments, since these animals develop a major hyperglycaemia during their life due to the combination of moderate obesity and pancreas degeneracy. To date, treatments are ineffective when the hyperglycaemia is established.
Then ZDF rats were treated with low doses of rT3 for 21 days (2.5 μg/100 g BW/day) and the glycaemia, insulinaemia were measured after 8, 16 and 21 days.

ZDF rats [2] = assay: Body composition of ZDF rats; format: in vivo, rat
Source text: At the end of the experimental period, animals were sacrificed by decapitation, in order to avoid the well-known effects of general anesthetics on mitochondrial metabolism. Blood samples were immediately collected and plasma was frozen for subsequent determination of serum metabolites and hormones. Liver, muscles and fat depots were quickly excised and weighed. Liver median lobe was rapidly freeze-clamped. Muscles (plantaris, soleus and gastrocnemius) were frozen in isopentane precooled in liquid nitrogen. Mesenteric fat consisted of adipose tissue surrounding the gastro-intestinal tract from the gastro-oesophageal sphincter to the end of the rectum with special care taken in distinguishing and removing the pancreas. Retroperitoneal fat pad was taken as the distinct depot behind each kidney along the lumbar muscles. Epididymal fat consisted of adipose tissue on top of the epididymis. For subcutaneous depot measurement, a rectangular piece of skin was taken on the right side of each animal from the median line of the abdomen between the spine and the right hip to the first rib. Interscapular brown adipose tissue was removed and dissected free from adjacent muscles and white adipose tissue. The heart ventricles, the right kidney and the spleen were also excised, weighed and frozen.

N[C@@H](Cc1ccc(Oc2cc(I)c(O)c(I)c2)c(I)c1)C(=O)O [rT3, 3′,5′,3-triiodothyronine]
Insulin level (blood insulin concentration) (ZDF rats [1]; 2.5 μg/100 g BW/day, up to 21 days, placebo progressively decreases): maintained; also recorded: increasing plasmatic insulin concentration
Pancreas mass (ZDF rats [1]; 2.5 μg/100 g BW/day, vs placebo): increased
Glycaemia (blood glucose concentration) (ZDF rats [1]; low dose 2.5 μg/100 g BW/day, 8, 16 and 21 days, vs placebo): large reduction; also recorded: decreasing glucose concentration
Brown adipose tissue mass (ZDF rats [2]; 2.5 μg/100 g BW): increase
Muscular mass (ZDF rats [2]; 2.5 μg/100 g BW): not affected
White adipose tissue (ZDF rats [2]; 2.5 μg/100 g BW): seems not to be affected
Fat mass (photography, FIG. 21) (ZDF rats [2]; low dose of rT3, 21 days, vs placebo): reduced
